In patent publication US20230060425A1, “FUSED BICYCLIC HETEROCYCLE DERIVATIVES AS PESTICIDES” (Bayer Aktiengesellschaft, priority 2019, published 2023):
Where two headings read alike, the source gives them in different places.

Experiments:
Type in all cases: in vivo
Boophilus microplus = Boophilus microplus injection test; conditions: application rate 20 μg/animal, after 7 days, laying of fertile eggs
Description: Boophilus microplus—Injection Test
(§1) Solvent: Dimethyl sulfoxide
To produce a suitable active compound formulation, 10 mg of active compound are mixed with 0.5 ml of solvent and the concentrate is diluted to the desired concentration with solvent.
1 μl of the active compound solution is injected into the abdomen of 5 engorged adult female cattle ticks (Boophilus microplus). The animals are transferred into dishes and kept in a climate-controlled room.
Efficacy is assessed after 7 days by laying of fertile eggs. Eggs which are not visibly fertile are stored in a climate-controlled cabinet until the larvae hatch after about 42 days. An efficacy of 100% means that none of the ticks has laid any fertile eggs; 0% means that all the eggs are fertile.

Ctenocephalides felis = Ctenocephalides felis oral test; conditions: 48 h, application rate 100 ppm, in citrated cattle blood, after 2 days, read-out: efficacy (kill in %)
Description: Ctenocephalides felis—Oral Test
as §1
To produce a suitable active compound formulation, 10 mg of active compound are mixed with 0.5 ml of dimethyl sulfoxide. Dilution with citrated cattle blood gives the desired concentration.
About 20 unfed adult cat fleas (Ctenocephalides felis) are placed into a chamber which is closed at the top and bottom with gauze. A metal cylinder whose bottom end is closed with parafilm is placed onto the chamber. The cylinder contains the blood/active compound formulation, which can be imbibed by the fleas through the parafilm membrane.
After 2 days, the kill in % is determined. 100% means that all of the fleas have been killed; 0% means that none of the fleas have been killed.

Lucilia cuprina = Lucilia cuprina test; conditions: application rate 100 ppm; L1 larvae; after 2 days
Description: as §1
To produce a suitable active compound formulation, 10 mg of active compound are mixed with 0.5 ml of dimethyl sulfoxide, and the concentrate is diluted with water to the desired concentration.
About 20 L1 larvae of the Australian sheep blowfly (Lucilia cuprina) are transferred into a test vessel containing minced horsemeat and the active compound formulation of the desired concentration.
After 2 days, the kill in % is determined. 100% means that all the larvae have been killed; 0% means that no larvae have been killed.

Myzus persicae [1] = assay: Myzus persicae oral test; conditions: 120 h, application rate 4 ppm, after 5 days, read-out: efficacy
Summary of the method: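 Aphid feeding test: compound dissolved in acetone, diluted with water and mixed with IPL41 insect medium plus sugar, offered through parafilm to a mixed population of green peach aphids. Mortality scored after 5 days as % efficacy (100% = all aphids dead, 0% = none dead).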

Myzus persicae [2] = assay: Myzus persicae spray test; conditions: foliar, 120 h, application rate 100 g/ha, Chinese cabbage leaf discs, after 5 days, read-out: efficacy
Summary of the method: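 Chinese cabbage leaf discs infested with all stages of Myzus persicae were sprayed with compound in acetone/DMF, diluted in water containing 1000 ppm emulsifier. Efficacy in % assessed after 5 days: 100% all aphids killed, 0% none killed.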

Phaedon cochleariae [3] = assay: Phaedon cochleariae spray test; conditions: foliar, 168 h, application rate 100 g/ha, Chinese cabbage leaf discs, after 7 days, read-out: efficacy
Description: Phaedon cochleariae—Spray Test
(§2) Solvent: • 78.0 parts by weight of acetone • 1.5 parts by weight of dimethylformamide
(§3) Emulsifier: alkylaryl polyglycol ether
(§4) To produce a suitable active compound preparation, 1 part by weight of active compound is dissolved using the stated parts by weight of solvent and made up with water containing an emulsifier concentration of 1000 ppm until the desired concentration is attained. To produce further test concentrations, the formulation is diluted with emulsifier-containing water.
Discs of Chinese cabbage leaves (Brassica pekinensis) are sprayed with an active compound formulation of the desired concentration and, after drying, populated with larvae of the mustard beetle (Phaedon cochleariae).
After 7 days, the efficacy in % is determined. 100% means that all the beetle larvae have been killed; 0% means that no beetle larvae have been killed.

Spodoptera frugiperda [4] = assay: Spodoptera frugiperda spray test; conditions: foliar, 168 h, application rate 100 g/ha, maize leaf discs, after 7 days, read-out: efficacy
Description: Spodoptera frugiperda—Spray Test
as §2, §3
To produce further test concentrations, the formulation is diluted with emulsifier-containing water.
After 7 days, the efficacy in % is determined. 100% means that all the caterpillars have been killed; 0% means that no caterpillar has been killed.

Myzus persicae [5] = assay: Myzus persicae spray test (MYZUPE), comparative; conditions: 120 h, 5 dat, read-out: % Efficacy
Description: Myzus persicae—Spray Test (MYZUPE)
as §2, §3, §4
Discs of Chinese cabbage leaves (Brassica pekinensis) infested by all stages of the green peach aphid (Myzus persicae) are sprayed with an active compound preparation of the desired concentration.
(§5) After the desired period of time, the efficacy in % is determined. 100% means that all the aphids have been killed; 0% means that no aphids have been killed.

Spodoptera frugiperda [6] = assay: Spodoptera frugiperda spray test (SPODFR), comparative; conditions: 168 h, 0.8 g of ai/ha, 7 dat, read-out: % Efficacy
Description: Spodoptera frugiperda—Spray Test (SPODFR)
as §2, §3, §4
Leaf discs of maize (Zea mays) are sprayed with an active compound formulation of the desired concentration and, after drying, populated with caterpillars of the armyworm (Spodoptera frugiperda).
After the desired period of time, the efficacy in % is determined. 100% means that all the caterpillars have been killed; 0% means that no caterpillar has been killed.

Myzus persicae [7] = assay: Myzus persicae spray test on bell pepper plants (MYZUPE S); conditions: 144 h, 6 dat, read-out: % Efficacy
Description: Myzus persicae—Spray Test (MYZUPE S)
(§6) Solvent: 14 parts by weight of dimethylformamide
as §3
as §4, with “water. If the addition of ammonium salts or/and penetrants is required, these are each added in a concentration of 1000 ppm to the formulation solution.” for “water.”
Bell pepper plants (Capsicum annuum) severely infested with the green peach aphid (Myzus persicae) are treated by spraying with the active compound formulation in the desired concentration.
After the desired time, the kill in % is determined. 100% means that all the animals have been killed; 0% means that no animals have been killed.

Myzus persicae [8] = assay: Myzus persicae drench test (MYZUPE D); conditions: soil, 240 h, 10 dat, read-out: % Efficacy
Description: Myzus persicae—Drench Test (MYZUPE D)
Solvent: 7 parts by weight of dimethylformamide
Emulsifier: 2 part by weight of alkylaryl polyglycol ether
To produce a suitable active compound preparation, 1 part by weight of active compound is mixed with the specified amounts of solvent and emulsifier, and the concentrate is diluted with water to the desired concentration, it being necessary to include the volume of soil which is drenched in the calculation. It should be ensured that a concentration of 40 ppm of emulsifier in the soil is not exceeded. To produce further test concentrations, water is used for dilution.
Savoy cabbage (Brassica oleracea) in pots with soil and infested by all stages of the green peach aphid (Myzus persicae) is watered with an active compound preparation of the desired concentration.
as §5

Aphis gossypii = Aphis gossypii spray test (APHIGO S); conditions: 144 h, 6 dat, read-out: % Efficacy
Description: Aphis gossypii—Spray Test (APHIGO S)
as §6, §3
as §4, with “water. If the addition of ammonium salts or/and penetrants is required, these are each added in a concentration of 1000 ppm to the formulation solution.” for “water.”
Cotton plants (Gossypium hirsutum) heavily infested by the cotton aphid (Aphis gossypii) are sprayed with an active compound formulation of the desired concentration.
After the desired time, the kill in % is determined. 100% means that all the aphids have been killed; 0% means that no aphids have been killed.

Spodoptera frugiperda [9] = assay: Spodoptera frugiperda test on maize plants (SPODFR S); conditions: 6 dai, read-out: % Efficacy
Description: Spodoptera frugiperda Test (SPODFR S)
as §6
(§7) Emulsifier: 2 parts by weight of alkylaryl polyglycol ether
(§8) To produce a suitable active compound formulation, 1 part by weight of active compound is dissolved with the stated parts by weight of solvent and emulsifier and made up to the desired concentration with water. To produce further test concentrations, water is used for dilution. In the event that addition of ammonium salts or/and penetrants (rapeseed oil methyl ester) is required, these are each pipetted in at a concentration of 1000 ppm after the finished formulation solution has been diluted.
Maize plants (Zea mays) are sprayed with an active compound formulation of the desired concentration and, in each case after 5, 12 and 19 days, populated with 5 caterpillars (L2) of the fall armyworm (Spodoptera frugiperda).
(§9) The kill is determined 6 days after the infection. 100% means that all the caterpillars have been killed and 0% means that none of the caterpillars have been killed.

Heliothis armigera = Heliothis armigera test (HELIAR S); conditions: Helicoverpa armigera, 6 dai, read-out: % Efficacy
Description: Heliothis armigera Test (HELIAR S)
as §6, §7, §8
Cotton plants (Gossypium hirsutum) are sprayed with an active compound formulation of the desired concentration and, in each case after 12 and 19 days, populated with 5 caterpillars (L2) of the cotton bollworm (Heliothis armigera).
as §9

Plutella xylostella = Plutella xylostella test (PLUTMA S); conditions: 456 h, infection 19 dat, 6 dai, read-out: % Efficacy
Description: Plutella xylostella Test (PLUTMA S)
as §6, §7, §8
Cabbage plants (Brassica oleracea var. sabauda) are sprayed with an active compound formulation of the desired concentration and, after 19 days, populated with 10 caterpillars (L2 larvae) of the diamond back moth (Plutella xylostella).
as §9

Phaedon cochleariae [10] = assay: Phaedon cochleariae test on cabbage plants (PHAECO S); conditions: 6 dai, read-out: % Efficacy
Description: Phaedon cochleariae Test (PHAECO S)
as §6, §7, §8
Cabbage plants (Brassica oleracea var. sabauda) are sprayed with an active compound formulation of the desired concentration and populated with 10 L2 larvae of the mustard beetle (Phaedon cochleariae).
After the desired time, the kill in % is determined. 100% means that all the larvae have been killed and 0% means that none of the larvae have been killed.

CCS(=O)(=O)c1c(-c2nc3cc(C(F)(F)F)cnc3n2C)ncc2cc(Cl)ccc12 [Example I-010]
efficacy (Boophilus microplus): 80%
pest or weed control at 100 ppm (Ctenocephalides felis): 100%
efficacy (kill in %) (Lucilia cuprina): 100%
pest or weed control at 4 ppm (Myzus persicae [1]): 100%
pest or weed control at 100 g/ha (Myzus persicae [2]): 100%
pest or weed control at 100 g/ha (Phaedon cochleariae [3]): 100%
pest or weed control at 100 g/ha (Spodoptera frugiperda [4]): 100%

CCS(=O)(=O)c1c(-c2nc3cc(C(F)(F)F)cnc3n2C)ncc2cc(C(F)(F)F)ccc12 [Example I-51, reference compound]
Emax at 4 g/ha (Myzus persicae [5]; 4 g of ai/ha): 0%
Emax at 20 g/ha (Myzus persicae [5]; 20 g of ai/ha): 0%
Emax at 0.8 g/ha (Spodoptera frugiperda [6]): 67%
Emax at 0.8 ppm (Myzus persicae [7]; 0.8 ppm): 0%
Emax at 4 ppm (Myzus persicae [7]; 4 ppm): 70%
Emax at 4 ppm (Myzus persicae [8]): 0%
Emax at 4 ppm (Aphis gossypii): 20%
Emax at 0.16 ppm (Spodoptera frugiperda [9]; 120 h, infection 5 dat): 20%
Emax at 0.16 ppm (Spodoptera frugiperda [9]; 288 h, infection 12 dat): 10%
Emax at 0.8 ppm (Spodoptera frugiperda [9]; 288 h, infection 12 dat): 80%
Emax at 0.16 ppm (Spodoptera frugiperda [9]; 456 h, infection 19 dat): 30%
Emax at 0.8 ppm (Spodoptera frugiperda [9]; 456 h, infection 19 dat): 60%
Emax at 0.16 ppm (Heliothis armigera; 288 h, infection 12 dat): 40%
Emax at 0.16 ppm (Heliothis armigera; 456 h, infection 19 dat): 20%
Emax at 0.16 ppm (Plutella xylostella): 50%
Emax at 0.16 ppm (Phaedon cochleariae [10]; 120 h, infection 5 dat): 10%
Emax at 0.16 ppm (Phaedon cochleariae [10]; 288 h, infection 12 dat): 0%
Emax at 0.8 ppm (Phaedon cochleariae [10]; 288 h, 0.8 ppm, infection 12 dat): 40%
